The values below come from US4226775A, “Substituted thio-substituted benzyl-propionyl-L-prolines” (American Cyanamid Company, priority 1979, dated 1980).

SMILES strings stand for the structures.

This assay concerns the target T1, angiotensin converting enzyme (ACE) (Oryctolagus cuniculus, UniProt P12822).
T1 construct: The ACE was extracted from rabbit lung acetane powder (Pel-Freez, Biol. Inc.); tissue Pel-Freez, Biol. Inc; host or cells: rabbit lung acetone powder, crude extract (40,000 g supernatant)
T1 sequence (P12822 34-1310): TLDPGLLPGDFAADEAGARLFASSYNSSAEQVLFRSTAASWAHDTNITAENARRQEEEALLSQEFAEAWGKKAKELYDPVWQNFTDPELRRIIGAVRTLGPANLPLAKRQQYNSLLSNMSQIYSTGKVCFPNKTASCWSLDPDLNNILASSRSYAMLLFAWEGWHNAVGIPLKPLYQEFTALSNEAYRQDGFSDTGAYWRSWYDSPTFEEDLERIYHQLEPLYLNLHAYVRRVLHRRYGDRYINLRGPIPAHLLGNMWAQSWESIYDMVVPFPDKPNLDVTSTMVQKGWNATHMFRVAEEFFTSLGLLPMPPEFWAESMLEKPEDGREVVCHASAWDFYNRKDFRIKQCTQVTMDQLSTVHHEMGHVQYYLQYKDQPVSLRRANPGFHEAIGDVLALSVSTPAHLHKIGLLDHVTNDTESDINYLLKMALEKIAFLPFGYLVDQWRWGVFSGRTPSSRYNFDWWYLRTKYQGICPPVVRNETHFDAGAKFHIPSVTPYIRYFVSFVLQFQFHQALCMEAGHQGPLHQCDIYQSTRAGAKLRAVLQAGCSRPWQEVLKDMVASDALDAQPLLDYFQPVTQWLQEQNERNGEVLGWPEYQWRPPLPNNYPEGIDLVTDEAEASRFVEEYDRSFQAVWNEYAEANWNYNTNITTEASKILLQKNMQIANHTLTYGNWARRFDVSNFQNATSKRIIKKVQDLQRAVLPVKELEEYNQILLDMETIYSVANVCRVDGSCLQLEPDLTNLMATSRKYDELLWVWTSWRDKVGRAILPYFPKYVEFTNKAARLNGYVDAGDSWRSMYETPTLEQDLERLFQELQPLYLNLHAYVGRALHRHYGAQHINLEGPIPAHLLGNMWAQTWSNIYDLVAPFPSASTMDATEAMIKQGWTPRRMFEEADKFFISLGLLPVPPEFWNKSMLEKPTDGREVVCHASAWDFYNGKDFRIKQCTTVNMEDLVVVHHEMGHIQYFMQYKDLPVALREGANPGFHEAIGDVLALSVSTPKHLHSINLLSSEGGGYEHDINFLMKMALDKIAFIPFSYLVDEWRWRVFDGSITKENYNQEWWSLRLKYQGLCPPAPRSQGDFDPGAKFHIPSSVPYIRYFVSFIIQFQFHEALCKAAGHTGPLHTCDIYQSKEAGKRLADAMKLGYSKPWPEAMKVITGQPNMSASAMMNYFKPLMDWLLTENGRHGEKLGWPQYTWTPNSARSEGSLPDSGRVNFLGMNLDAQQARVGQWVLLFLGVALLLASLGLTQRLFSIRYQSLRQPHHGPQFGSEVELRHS
In words: Spectrophotometric assay for angiotensin converting enzyme inhibitors. The assay is classed as biochemical. To be noted: crude ACE extract from rabbit lung; substrate benzoyl-glycyl-histidyl-leucine; 30 minutes at 37° C.; absorbance at 228 nm. The protocol:
The activity of the novel compounds of this invention as hypotensive agents was established in two systems which measure their ability as angiotensin converting enzyme inhibitors; namely, a spectrophotometric assay of the compounds in vitro and by the measurement of the blood pressure lowering effect of the compounds in the aorta-coarcted renal hypertensive rats.
The in vitro activity for inhibition of the angiotensin converting enzyme (ACE) was measured by the method of Cushman, D. W. and Cheung, H. S., Biochem. Pharmacol. 20, 1637-1648 (1971), using benzoyl-glycyl-histidyl-leucine as the substrate. The reaction mixture consisted of 50 ml. of potassium phosphate (500 mM., […]), […]. of sodium chloride (2500 mM.), 25 ml. of substrate (50 mM), 30 to 50 ml. of the crude extract of ACE, 10 ml. of test compound (2.5 mM) or vehicle and a suitable amount of distilled water to give a total volume of 250 ml. This reaction mixture was incubated for 30 minutes at 37° C. and the reaction was then terminated by the addition of 250 ml. of 1 N hydrochloric acid. The hippuric acid was then extracted with 1.5 ml. of ethyl acetate by vortex mixing for 15 seconds. After centrifugation, 1 ml. of the ethyl acetate layer was pipetted into a new tube and evaporated to dryness. The extracted hippuric acid was then dissolved in 1 ml. of water and the amount of this acid was then measured by its absorbance at 228 nm. The ACE was extracted from rabbit lung acetane powder (Pel-Freez, Biol. Inc.) by blending 5 g. of the powder in 50 ml. of phosphate buffer (50 mM, pH 8.3) and then centrifuging at 40,000 g for 30 minutes. The supernatant was then kept at 5° C. and used as the enzyme source. The activity of the ACE inhibitor was calculated as the percent inhibition of ACE activity compared to the control value of that particular assay. A full dose-response inhibitory curve is then performed to determine the IC50 value which may be defined as the molar concentration of a compound that will inhibit the ACE activity by 50%.

The IC50 is the concentration that inhibits the measured activity by half. Compound `CC(=O)S[C@@H](C(=O)c1ccc(Br)cc1)[C@@H](C)C(=O)N1CCC[C@H]1C(=O)O` [[S-(R*,S*)]-1-[3-acetylthio-3-(4-bromobenzoyl)-2-methylpropionyl]-L-proline] displayed an IC50 of 0.0985 µM.
